Results taken from US4950602A, “Inhibition of lactate production by pyruvate adducts” (Cornell Research Foundation, Inc., priority 1987, dated 1990).
Where two headings read alike, the source gives them in different places. Each block holds one compound with its values, some of them ahead of it.

Key:
[1] = target: T1, beef heart lactate dehydrogenase (Bos taurus, UniProt Q5E9B1); assay: Inhibition of beef heart lactate dehydrogenase (NADH absorbance at 340 nm); assay type: biochemical, bovine; conditions: for Relative Activity (%) Beef Heart: 0.24 mM pyruvate, 0.1 mM NADH, pH 7.2, 25° C.
T1 construct: purchased Worthington Biochemical Corporation (Freehold, N.J.); host or cells: beef heart
T1 sequence (Q5E9B1 whole entry): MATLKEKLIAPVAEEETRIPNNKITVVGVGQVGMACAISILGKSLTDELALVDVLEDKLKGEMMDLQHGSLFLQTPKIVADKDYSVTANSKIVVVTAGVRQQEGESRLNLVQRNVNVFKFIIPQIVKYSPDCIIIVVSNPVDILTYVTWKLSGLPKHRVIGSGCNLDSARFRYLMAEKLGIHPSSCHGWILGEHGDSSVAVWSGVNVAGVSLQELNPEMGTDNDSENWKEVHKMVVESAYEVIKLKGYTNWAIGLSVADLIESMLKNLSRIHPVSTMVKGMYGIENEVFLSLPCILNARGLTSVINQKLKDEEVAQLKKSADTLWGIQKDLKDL
Text: Enzymes and enzyme assays. Rabbit muscle glyceraldehyde-3-phosphate dehydrogenase (80 U/mg: ammonium sulfate suspension), rabbit muscle glycerol-3-phosphate dehydrogenase (40 U/mg; ammonium sulfate suspension),beef liver glutamate dehydrogenase (120 U/mg: in 50% glycerol), mitochondrial pig heart malate dehydrogenase (1100 U/mg; in 50% glycerol) and yeast hexokinase (140 U/mg; ammonium sulfate suspension) were purchased from Boehringer Mannheim Corp. (Indianapolis). Beef heart lactate dehydrogenase (280 U/mg) was purchased from Worthington Biochemical Corporation (Freehold, N.J.). Porcine heart L-alanine aminotransferase (130 U/mg), rabbit muscle phosphofructokinase (140 U/mg; ammonium sulfate suspension), bovine heart α-ketoglutarate (8 U/mg) and pyruvate (5 U/mg) dehydrogenase complexes, sodium pyruvate, L-methionine-SR-sulfoximine, DL-vinylglycine, NAD^+, NADH and NAD^+ analogues (3-acetylpyridine, thionicotinamide, and 3-pyridinealdehyde adenine dinucleotides) were purchased from Sigma Chemical Company (St. Louis, Mo.).
(§1) Each of the enzymes was assayed by procedures in which change of absorbance at 340 nm due to NADH was followed essentially as described by Bergmeyer (1974, Methods of Enzymatic Analysis, 2nd Eng. Ed., Verlag Chemie Weinheim Academic Press, N.Y.) with the following exceptions. Phosphofructokinase was assayed according to the method of Lai et al (1984, J. Neurochem., 42:438-446). NAD^+ -linked isocitrate dehydrogenase was assayed as described by Lai and Clark (1976, Biochem. J., 154:423-432). Pyruvate and α-ketoglutarate dehydrogenase complexes were respectively assayed according to the methods of Lai and Sheu (1985, J. Neurochem., 45:1861-1868) and Lai and Cooper (1986) (J. Neurochem, 47:1376-1386).
(§2) The reaction mixture (1 ml) contained 0.24 mM sodium pyruvate, 0.1 mM
(§3) NADH, 100 mM potassium phosphate buffer (pH 7.2) and either purified
(§4) bovine heart lactate dehydrogenase (0.01 U) or rat brain homogenate
(§5) containing ~0.02 U of lactate dehydrogenase activity; 25° C.
(§6) Since APADpyruvate adduct and RAP have a tendency to revert to pyruvate
(§7) they were added to the reaction mixture just prior to addition of enzyme.
(§8) Because the kinetics obtained with tightbinding inhibitors depends on the
(§9) order of addition of substrates and inhibitors the enzyme was always adde
(§10) last. Each value is the average of at least 3 determinations. Each of the […]

[2] = system: rat brain lactate dehydrogenase; assay: Inhibition of rat brain lactate dehydrogenase (rat brain homogenate); assay type: biochemical; conditions: rat brain homogenate, 0.24 mM pyruvate, 0.1 mM NADH, pH 7.2, 25° C.
Procedure: as §1, §2, §3, §4, §5, §6, §7, §8, §9, §10

[3] = target: chicken H4 lactate dehydrogenase (Gallus gallus, UniProt P00337); conditions: concentration not given; Everse et al 1971; cited from earlier work
Chain of chicken H4 lactate dehydrogenase (P00337 whole entry): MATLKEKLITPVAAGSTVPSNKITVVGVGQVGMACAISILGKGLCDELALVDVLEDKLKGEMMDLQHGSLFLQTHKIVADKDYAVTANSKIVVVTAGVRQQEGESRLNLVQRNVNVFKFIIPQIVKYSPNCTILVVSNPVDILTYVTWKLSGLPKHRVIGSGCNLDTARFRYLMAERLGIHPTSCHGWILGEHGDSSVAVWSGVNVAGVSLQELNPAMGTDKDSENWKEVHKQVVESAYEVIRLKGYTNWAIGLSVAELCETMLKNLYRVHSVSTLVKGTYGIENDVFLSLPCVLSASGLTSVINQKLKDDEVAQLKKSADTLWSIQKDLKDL

[4] = target: pig heart mitochondrial malate dehydrogenase (Sus scrofa, UniProt P00346); conditions: concentration that inhibited chicken H4 lactate dehydrogenase by 59%; Everse et al 1971; cited from earlier work
Chain of pig heart mitochondrial malate dehydrogenase (P00346 25-338): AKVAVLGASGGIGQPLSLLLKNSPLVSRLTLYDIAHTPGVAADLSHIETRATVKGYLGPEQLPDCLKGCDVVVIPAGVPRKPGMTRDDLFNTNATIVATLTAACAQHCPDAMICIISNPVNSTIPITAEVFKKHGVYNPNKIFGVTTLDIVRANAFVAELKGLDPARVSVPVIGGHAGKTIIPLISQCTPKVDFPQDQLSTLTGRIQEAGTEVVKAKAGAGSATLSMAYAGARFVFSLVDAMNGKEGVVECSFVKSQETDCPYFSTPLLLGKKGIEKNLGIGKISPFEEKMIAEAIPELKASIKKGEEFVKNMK

[5] = target: horse liver alcohol dehydrogenase (Equus caballus, UniProt P00327); conditions: concentration that inhibited chicken H4 lactate dehydrogenase by 59%; Everse et al 1971; cited from earlier work
Chain of horse liver alcohol dehydrogenase (P00327 whole entry): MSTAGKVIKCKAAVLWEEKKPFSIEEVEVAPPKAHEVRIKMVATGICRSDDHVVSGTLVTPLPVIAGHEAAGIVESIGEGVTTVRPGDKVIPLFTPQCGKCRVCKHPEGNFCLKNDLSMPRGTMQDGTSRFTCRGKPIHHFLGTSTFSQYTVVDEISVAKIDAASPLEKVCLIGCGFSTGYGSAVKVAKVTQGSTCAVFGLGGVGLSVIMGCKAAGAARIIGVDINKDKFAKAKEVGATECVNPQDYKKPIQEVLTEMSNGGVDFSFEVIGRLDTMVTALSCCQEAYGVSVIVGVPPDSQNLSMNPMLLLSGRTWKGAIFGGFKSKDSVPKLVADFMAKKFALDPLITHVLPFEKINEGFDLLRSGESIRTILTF

[6] = target: yeast alcohol dehydrogenase (Saccharomyces cerevisiae, UniProt P00330); conditions: concentration that inhibited chicken H4 lactate dehydrogenase by 59%; Everse et al 1971; cited from earlier work
Chain of yeast alcohol dehydrogenase (P00330 whole entry): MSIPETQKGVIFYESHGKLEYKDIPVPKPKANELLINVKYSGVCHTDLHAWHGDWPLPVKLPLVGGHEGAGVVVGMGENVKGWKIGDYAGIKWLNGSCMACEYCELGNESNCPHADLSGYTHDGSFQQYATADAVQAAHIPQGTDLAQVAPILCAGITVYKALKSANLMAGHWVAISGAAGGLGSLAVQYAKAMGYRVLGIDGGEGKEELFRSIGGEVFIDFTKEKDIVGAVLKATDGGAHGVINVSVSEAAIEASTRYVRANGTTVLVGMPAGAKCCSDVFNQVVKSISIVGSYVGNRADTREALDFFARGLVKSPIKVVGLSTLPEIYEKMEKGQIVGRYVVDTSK

[7] = system: dogfish liver glutamate dehydrogenase; conditions: concentration that inhibited chicken H4 lactate dehydrogenase by 59%; Everse et al 1971; cited from earlier work
[8] = cited from earlier work; for stability in solution: Burgner and Ray 1984
[9] = system: lactate dehydrogenase; assay: Reactive α-keto and α-hydroxy acids as inhibitors of lactate dehydrogenase; assay type: biochemical
Procedure: as §1

[10] = target: lactate dehydrogenase (dogfish enzyme) (Squalus acanthias, UniProt P00341); conditions: Burgner and Ray 1984; cited from earlier work
Chain of lactate dehydrogenase (dogfish enzyme) (P00341 whole entry): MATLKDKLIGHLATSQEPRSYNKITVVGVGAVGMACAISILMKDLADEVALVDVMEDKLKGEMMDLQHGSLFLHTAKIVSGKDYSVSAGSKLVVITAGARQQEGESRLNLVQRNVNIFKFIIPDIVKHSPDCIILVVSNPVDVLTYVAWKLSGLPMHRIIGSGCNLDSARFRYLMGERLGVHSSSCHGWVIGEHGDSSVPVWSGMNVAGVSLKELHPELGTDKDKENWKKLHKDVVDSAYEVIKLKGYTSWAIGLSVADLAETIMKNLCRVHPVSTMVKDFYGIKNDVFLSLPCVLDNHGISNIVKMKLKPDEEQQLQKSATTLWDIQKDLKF

Compound: NC(=S)C1=CN([C@@H]2O[C@H](COP(=O)(O)OP(=O)(O)OC[C@H]3O[C@@H](n4cnc5c(N)ncnc54)[C@H](O)[C@@H]3O)[C@@H](O)[C@H]2O)C=CC1CC(=O)C(=O)O (stereo partly drawn) [Thio analogue]
- Relative Activity (%) Beef Heart ([1]; additive 0.7 μM): 38%
- Relative Activity (%) Beef Heart ([1]; additive 1.4 μM): 17%
- Relative Activity (%) Rat Brain ([2]; additive 1.4 μM): 33%

Compound: CC(=O)C1=CN([C@@H]2O[C@H](COP(=O)(O)OP(=O)(O)OC[C@H]3O[C@@H](n4cnc5c(N)ncnc54)[C@H](O)[C@@H]3O)[C@@H](O)[C@H]2O)C=CC1CC(=O)C(=O)O (stereo partly drawn) [Acetyl analogue, reference compound]
- Relative Activity (%) Beef Heart ([1]; additive 0.08 μM): 90%
- Relative Activity (%) Beef Heart ([1]; additive 0.42 μM): 60%
- Relative Activity (%) Beef Heart ([1]; additive 0.84 μM): 21%
- Relative Activity (%) Rat Brain ([2]; additive 0.42 μM): 61%
- Relative Activity (%) Rat Brain ([2]; additive 0.84 μM): 30%
- Ki [10]: 0.0001 µM
- stability in solution ([8]; pH 7.0): reverts to free pyruvate and APAD
- stability in solution ([8]; pH 11.0): relatively stable

The next lines start with results.

- Relative Activity (%) Beef Heart ([1]; additive 34 μM): 90%
- Relative Activity (%) Beef Heart ([1]; additive 68 μM): 62%
- Relative Activity (%) Beef Heart ([1]; additive 136 μM): 38%
- Ki ([1]; calculated from Table 1 data with Km for NADH 2.5 μM, standard equation for a competitive inhibitor, read-out: Ki): 2.6 µM
- Relative Activity (%) Rat Brain ([2]; additive 34 μM): 48%
Compound: NC(=O)C1=CN([C@@H]2O[C@H](COP(=O)(O)OP(=O)(O)OC[C@H]3O[C@@H](n4cnc5c(N)ncnc54)[C@H](O)[C@@H]3O)[C@@H](O)[C@H]2O)C=CC1CC(=O)C(=O)O (stereo partly drawn) [NAD-pyruvate adduct]
- inhibition of chicken H4 lactate dehydrogenase [3]: 59%
- effect on pig heart mitochondrial malate dehydrogenase [4]: little effect
- effect on horse liver alcohol dehydrogenase [5]: little effect
- effect on yeast alcohol dehydrogenase [6]: little effect
- effect on dogfish liver glutamate dehydrogenase [7]: little effect
- stability (loss of absorbance at 340 nm) ([8]; Everse et al 1971): relatively unstable and easily oxidized

- action on lactate dehydrogenase [9]: substrates, not inhibitors
Compound: CC=CC(=O)C(=O)O [2-oxo-3-pentenoic acid]

- action on lactate dehydrogenase [9]: substrates, not inhibitors
Compound: Vinylglycolate
